According to patent US20100022491A1, “4-HYDROXY-2-OXO-2,3-DIHYDRO-1,3-BENZOTHIAZOL-7YL COMPOUNDS FOR MODULATION OF B2-ADRENORECEPTOR ACTIVITY” (ASTRAZENECA AB, priority 2006, published 2010):
Where a name gives a salt, the structure may show the parent alone.

Experiments:
Adrenergic β2 = target: T1, Adrenergic β2 (Homo sapiens, UniProt P07550); experiment: Adrenergic β2 mediated cAMP production in H292 cells; format: cell-based; details: for EC50: H292 cells, cAMP by AlphaScreen, 60 minutes at room temperature, rolipram 300 μM, read-out: β2 pEC50 (converted); for β2 Int Act: Intrinsic Activity as a fraction relative to the maximum activity determined for formoterol
T1 construct: Adherent H292 cells were removed from tissue culture flasks; endogenous in cells; host or cells: H292 cells
T1 sequence (P07550 whole entry): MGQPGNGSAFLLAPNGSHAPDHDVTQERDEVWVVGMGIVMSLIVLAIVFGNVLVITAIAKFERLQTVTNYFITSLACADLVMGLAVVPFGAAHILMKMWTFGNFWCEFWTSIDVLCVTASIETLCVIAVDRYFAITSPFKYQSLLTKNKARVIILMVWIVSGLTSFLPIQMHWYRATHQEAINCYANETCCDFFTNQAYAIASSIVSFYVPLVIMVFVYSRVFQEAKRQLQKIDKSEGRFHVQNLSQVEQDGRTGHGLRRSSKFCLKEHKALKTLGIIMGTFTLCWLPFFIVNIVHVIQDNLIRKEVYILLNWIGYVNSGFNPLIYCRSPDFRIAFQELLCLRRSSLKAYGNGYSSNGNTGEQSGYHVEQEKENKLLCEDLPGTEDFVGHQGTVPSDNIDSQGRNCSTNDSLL
Procedure: Adrenergic β2 mediated cAMP production
H292 cells were grown in 225 cm2 flasks incubator at 37° C., 5% CO2 in RPMI medium containing, 10% (v/v) FBS (foetal bovine serum) and 2 mM L-glutamine.
Adherent H292 cells were removed from tissue culture flasks by treatment with Accutase™ cell detachment solution for 15 minutes. Flasks were incubated for 15 minutes in a humidified incubator at 37° C., 5% CO2. Detached cells were re-suspended in RPMI media (containing 10% (v/v) FBS and 2 mM L-glutamine) at 0.05×10^6 cells per mL. 5000 cells in 100 μL were added to each well of a tissue-culture-treated 96-well plate and the cells incubated overnight in a humidified incubator at 37° C., 5% CO2. The culture media was removed and cells were washed twice with 100 μL assay buffer and replaced with 50 μL assay buffer (HBSS solution containing 10 mM HEPES pH7.4 and 5 mM glucose). Cells were rested at room temperature for 20 minutes after which time 25 μL of rolipram (1.2 mM made up in assay buffer containing 2.4% (v/v) dimethylsulphoxide) was added. Cells were incubated with rolipram for 10 minutes after which time test compounds were added and the cells were incubated for 60 minutes at room temperature. The final rolipram concentration in the assay was 300 μM and final vehicle concentration was 1.6% (v/v) dimethylsulphoxide. The reaction was stopped by removing supernatants, washing once with 100 μL assay buffer and replacing with 50 μL lysis buffer. The cell monolayer was frozen at −80° C. for 30 minutes (or overnight).
The concentration of cAMP (cyclic adenosine monophosphate) in the cell lysate was determined using AlphaScreen™ methodology. The frozen cell plate was thawed for 20 minutes on a plate shaker then 10 μL of the cell lysate was transferred to a 96-well white plate. 40 μL of mixed AlphaScreen™ detection beads pre-incubated with biotinylated cAMP, was added to each well and the plate incubated at room temperature for 10 hours in the dark. The AlphaScreen™ signal was measured using an EnVision spectrophotometer (Perkin-Elmer Inc.) with the recommended manufacturer's settings. cAMP concentrations were determined by reference to a calibration curve determined in the same experiment using standard cAMP concentrations. Concentration response curves for agonists were constructed and data was fitted to a four parameter logistic equation to determine both the pEC50 and Intrinsic Activity. Intrinsic Activity was expressed as a fraction relative to the maximum activity determined for formoterol in each experiment.

[1] = target: T2, recombinant human α1D receptor (Homo sapiens, UniProt P25100); experiment: Adrenergic α1D selectivity binding assay ([3H]-prazosin); details: inhibition of [3H]-prazosin (0.3 nM) binding, HEK293 membranes; read-out: α1 bind pIC50 (converted)
T2 construct: expressed in transfected cells; host or cells: HEK293
T2 sequence (P25100 1-572): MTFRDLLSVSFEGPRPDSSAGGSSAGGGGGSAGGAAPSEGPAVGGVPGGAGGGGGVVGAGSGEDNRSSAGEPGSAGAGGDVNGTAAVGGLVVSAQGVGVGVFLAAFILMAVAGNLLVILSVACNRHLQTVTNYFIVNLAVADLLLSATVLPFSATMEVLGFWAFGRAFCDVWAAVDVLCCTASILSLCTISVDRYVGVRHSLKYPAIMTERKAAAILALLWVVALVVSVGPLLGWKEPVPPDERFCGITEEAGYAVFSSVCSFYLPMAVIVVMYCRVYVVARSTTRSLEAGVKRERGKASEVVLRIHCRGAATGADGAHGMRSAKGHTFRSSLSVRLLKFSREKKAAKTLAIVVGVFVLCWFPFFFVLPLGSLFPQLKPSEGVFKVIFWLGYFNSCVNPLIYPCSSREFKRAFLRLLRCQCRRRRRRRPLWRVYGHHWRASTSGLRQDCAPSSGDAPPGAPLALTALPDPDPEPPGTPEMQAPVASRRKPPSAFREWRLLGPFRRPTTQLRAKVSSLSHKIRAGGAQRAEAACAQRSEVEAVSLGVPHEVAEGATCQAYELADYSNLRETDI
Procedure: Membranes were prepared from human embryonic kidney 293 (HEK293) cells expressing recombinant human α1D receptor. These were diluted in Assay Buffer (50 mM HEPES, 1 mM EDTA, 0.1% gelatin, pH 7.4) to provide a final concentration of membranes that gave a clear window between maximum and minimum specific binding.
(§1) Assays were performed in U-bottomed 96-well polypropylene plates. 10 μL [^3H]-prazosin (0.3 nM final concentration) and 10 μL of test compound (10× final concentration) were added to each test well. For each assay plate 8 replicates were obtained for [^3H]-prazosin binding in the presence of 10 μL vehicle (10% (v/v) DMSO in Assay Buffer; defining maximum binding) or 10 μL BMY7378 (10 μM final concentration; defining non-specific binding (NSB)). Membranes were then added to achieve a final volume of 100 μL. The plates were incubated for 2 hours at room temperature and then filtered onto PEI coated GF/B filter plates, pre-soaked for 1 hour in Assay Buffer, using a 96-well plate Tomtec cell harvester. Five washes with 250 μL wash buffer (50 mM HEPES, 1 mM EDTA, pH 7.4) were performed at 4° C. to remove unbound radioactivity. The plates were dried then sealed from underneath using Packard plate sealers and MicroScint-O (50 μL) was added to each well. The plates were sealed (TopSeal A) and filter-bound radioactivity was measured with a scintillation counter (TopCount, Packard BioScience) using a 3-minute counting protocol.
(§2) Total specific binding (B0) was determined by subtracting the mean NSB from the mean maximum binding. NSB values were also subtracted from values from all other wells. […] Data was fitted to a four parameter logistic equation to determine the compound potency, which was expressed as pIC50 (negative log molar concentration inducing 50% inhibition of [^3H]-prazosin binding).

[2] = target: T3, recombinant human adrenergic beta 1 receptors (Homo sapiens, UniProt P08588); experiment: Adrenergic β1 selectivity binding assay ([125I]-Iodocyanopindolol); details: inhibition of [125I]-Iodocyanopindolol (0.036 nM) binding; read-out: β1 bind p IC50 (converted)
T3 construct: purchased Euroscreen
T3 sequence (P08588 whole entry): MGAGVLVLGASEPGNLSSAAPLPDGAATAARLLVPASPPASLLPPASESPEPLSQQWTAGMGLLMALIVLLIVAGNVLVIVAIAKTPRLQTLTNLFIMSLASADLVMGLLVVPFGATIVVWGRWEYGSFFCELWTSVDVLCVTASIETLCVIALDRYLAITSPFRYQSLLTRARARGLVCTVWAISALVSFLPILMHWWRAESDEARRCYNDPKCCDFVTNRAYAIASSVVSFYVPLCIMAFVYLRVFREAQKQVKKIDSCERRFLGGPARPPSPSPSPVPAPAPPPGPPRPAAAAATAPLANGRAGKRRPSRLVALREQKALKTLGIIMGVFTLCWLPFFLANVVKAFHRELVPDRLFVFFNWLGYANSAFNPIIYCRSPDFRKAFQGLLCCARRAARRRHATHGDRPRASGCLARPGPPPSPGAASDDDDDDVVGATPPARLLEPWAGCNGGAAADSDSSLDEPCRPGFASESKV
Procedure: (§3) Membranes containing recombinant human adrenergic beta 1 receptors were obtained from Euroscreen. These were diluted in Assay Buffer (50 mM HEPES, 1 mM EDTA, 120 mM NaCl, 0.1% gelatin, pH 7.4) to provide a final concentration of membranes that gave a clear window between maximum and minimum specific binding.
as §1, with “[^125I]-Iodocyanopindolol (0.036” for “[^3H]-prazosin (0.3”, “[^125I]-Iodocyanopindolol” for “[^3H]-prazosin”, “Propranolol” for “BMY7378”, “EDTA, 120 mM NaCl,” for “EDTA,”
as §2, with “[^125I]-Iodocyanopindolol” for “[^3H]-prazosin”

[3] = target: T4, recombinant human Dopamine Subtype D2s receptors (Homo sapiens, UniProt P14416); experiment: Dopamine D2 selectivity binding assay ([3H]-spiperone); details: inhibition of [3H]-spiperone (0.16 nM) binding; read-out: D2 bind pIC50 (converted)
T4 construct: purchased Perkin Elmer
T4 sequence (P14416 1-414 isoform P14416-2): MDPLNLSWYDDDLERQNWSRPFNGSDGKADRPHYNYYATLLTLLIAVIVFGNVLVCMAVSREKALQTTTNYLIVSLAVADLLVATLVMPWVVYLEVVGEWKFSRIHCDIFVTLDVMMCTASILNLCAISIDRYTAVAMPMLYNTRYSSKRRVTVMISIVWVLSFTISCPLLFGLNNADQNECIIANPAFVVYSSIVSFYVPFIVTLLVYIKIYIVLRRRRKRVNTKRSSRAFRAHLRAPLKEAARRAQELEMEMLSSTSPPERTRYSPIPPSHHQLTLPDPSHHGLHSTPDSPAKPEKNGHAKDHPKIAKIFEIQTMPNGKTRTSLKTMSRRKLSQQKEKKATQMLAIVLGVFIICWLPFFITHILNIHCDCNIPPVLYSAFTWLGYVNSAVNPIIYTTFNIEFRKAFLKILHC
Procedure: as §3, with “Dopamine Subtype D2s” for “adrenergic beta 1”, “Perkin Elmer.” for “Euroscreen.”
Assays were performed in U-bottomed 96-well polypropylene plates. 30 μL [^3H]-spiperone (0.16 nM final concentration) and 30 μL of test compound (10× final concentration) were added to each test well. For each assay plate 8 replicates were obtained for [^3H]-spiperone binding in the presence of 30 μL vehicle (10% (v/v) DMSO in Assay Buffer; defining maximum binding) or 30 μL Haloperidol (10 μM final concentration; defining non-specific binding (NSB)). Membranes were then added to achieve a final volume of 300 μL. The plates were incubated for 2 hours at room temperature and then filtered onto PEI coated GF/B filter plates, pre-soaked for 1 hour in Assay Buffer, using a 96-well plate Tomtec cell harvester. Five washes with 250 μL wash buffer (50 mM HEPES, 1 mM EDTA, 120 mM NaCl, pH 7.4) were performed at 4° C. to remove unbound radioactivity. The plates were dried then sealed from underneath using Packard plate sealers and MicroScint-O (50 μL) was added to each well. The plates were sealed (TopSeal A) and filter-bound radioactivity was measured with a scintillation counter (TopCount, Packard BioScience) using a 3-minute counting protocol.
as §2, with “[^3H]-spiperone” for “[^3H]-prazosin”

Q: How did the EC50 (Adrenergic β2) turn out when O=C(CCNCCc1ccc(Cl)c(Cl)c1)N(CCNCCc1ccc(O)c2[nH]c(=O)sc12)C1CCC(F)(F)CC1 [Example 49, N^3-[2-(3,4-Dichlorophenyl)ethyl]-N^1-(4,4-difluorocyclohexyl)-N^1-(2-{[2-(4-hydroxy-2-oxo-2,3-dihydro-1,3-benzothiazol-7-yl)ethyl]amino}ethyl)-β-alaninamide bis-trifluoroacetic acid salt] was run?
A: 7.94 nM

Q: And the “β2 Int Act” value (Adrenergic β2)?
A: 0.59

Q: And the IC50 [1]?
A: 631 nM

Q: And the IC50 [2]?
A: 1580 nM

Q: Which results are given for CC(C)N(CCNCCc1ccc(O)c2[nH]c(=O)sc12)C(=O)CCNCCc1ccc(Cl)cc1 [Example 3, N^3-[2-(4-Chlorophenyl)ethyl]-N-(2-{[2-(4-hydroxy-2-oxo-2,3-dihydro-1,3-benzothiazol-7-yl)ethyl]amino}ethyl)-N-isopropyl-β-alaninamide bis-trifluoroacetic acid salt]?
A: EC50 (Adrenergic β2): 39.8 nM; β2 Int Act (Adrenergic β2): 0.34; IC50 [1]: 251 nM; IC50 [3]: 794 nM

Q: How did the EC50 (Adrenergic β2) turn out when CC(C)(CNCCC(=O)N(CCNCCc1ccc(O)c2[nH]c(=O)sc12)C1CCCCC1)c1ccccc1 [Example 21, N-Cyclohexyl-N-(2-{[2-(4-hydroxy-2-oxo-2,3-dihydro-1,3-benzothiazol-7-yl)ethyl]amino}ethyl)-N^3-(2-methyl-2-phenylpropyl)-β-alaninamide bis-trifluoroacetic acid salt] was run?
A: 31.6 nM

Q: And the “β2 Int Act” value (Adrenergic β2)?
A: 0.85

Q: What about the IC50 [1] of the same compound?
A: 251 nM

Q: What about the IC50 [3] of the same compound?
A: 3980 nM
